Reference: US20150141360A1, “BIOCIDAL COMPOSITIONS” (CEBEC GROUP LTD., priority 2012, published 2015)
In brackets after ≈: the same amount, converted by molar mass. Read-outs that look alike come from different tables or passages of the source.

Legend:
[1] = system: isolated strains from food production environments; assay type: cell-based
Excerpt: In the early stages of these investigations, efforts were concentrated on two zoonotic pathogens namely verocytoxigenic Escherichia coli O157 and Salmonella species, along with the recently described powdered infant formula pathogen Cronobacter species. […] Some of the genera appeared to be more susceptible compared with others, as in the case of Cronobacter. Attempts to develop tolerant phenotypes were marginally successful and where this was generated, the phenotype was unstable. […] Highly-tolerant mutant phenotypes were obtained and these are currently being studied in detail, using a dedicated technical pipeline, described above. It was decided that it would be of interest to include the food-borne zoonotic pathogen Campylobacter and to evaluate its susceptibility/tolerance to the same panel compounds. Once again, it could be shown that Campylobacter was susceptible. However, as the panel of compounds used could be described as synthetic, the availability of C-Activ-12 presented the opportunity to re-evaluate the responses of these bacteria to this natural biocide. […] In the current project proposal, this inhibitory effect will be characterised in detail, to provide a means of understanding the mode of action. […] C-Activ-12 is a novel natural biocide. The formulation ingredients are FDA GRAS approved comprising organic acids and natural fruit extracted polyphenols. The broad spectrum activity of the formulation resulted it its inclusion in a University College Dublin Government funded independent study under the FIRM (see hereunder) research program. The program studies the effectiveness of products used to manage micro-organisms/pathogens prevalent in the food sector, comparing effectiveness & testing against isolated strains. […] The Irish Department of Agriculture and Food's Food Institutional Research Measure (FIRM) is funded under the National Development Plan 2007-2013. FIRM is the primary national funding mechanism for food research in third level colleges and research institutes. FIRM is a public good competitive programme whereby multi-disciplinary teams from two or more institutions usually carry out the research projects. Research outputs are communicated to industry by a dedicated dissemination team known as RELAY. FIRM aims to develop public good technologies that will underpin a competitive, innovative and sustainable food manufacturing and marketing sector. The programme is creating a base of knowledge and expertise in generic technologies that will support a modern, consumer-focused industry and build Ireland's capacity for R&D. A key output of the FIRM is highly trained young researchers at PhD and postdoctoral level, with specialist skills particularly relevant to the Irish food sector. The following pages provide an overview of the effectiveness of CeBeC's C-Activ-12 in killing micro-organisms. Standard testing protocols were first applied by AIT CBBR under British & European Food Grade Sanitiser Standard BS EN 1276, requiring a log 5 reduction from a log 7 to a log 2. The activity of C-Activ-12 highlighted a greater than log 6 reduction from a log 8. Based on the results under BS EN 1276, UCD added the product under the FIRM study whereby pathogens were isolated from food production environments. The rationale behind this approach is that most standards rely on ATCC & NCTC cultures which are more than often easier to kill than isolates.

[2] = system: Escherichia coli ATCC 25922; experiment: Preliminary evaluation of bactericidal efficacy (5 min treatment, colony counts); assay type: cell-based; set-up: key: TNTC=To Numerous To Count; settings: 5 min exposure to 0.5% v/v
Method: The compositions are suitable for use in the food and food processing industry. For rapid screening, a preliminary method allowed selection of the most efficient formulations. […] The composition of each formulation (0.5% v/v) was used blind to ensure no bias. The formulation was reviewed after each set of tests to improve the products composition and efficiency. Prototype formulations were prepared under aseptic conditions.
Typically, an overnight culture of bacteria strains were diluted 1:1000 in sterile hard water to a final density of approx 1×10^6 bacteria. A 1 ml volume of bacteria was treated for 5 minutes at room temperature with 500 μl of antimicrobial solutions. […] The treatment was ceased by the addition of 200 μl of the neutralising solution. All strains were serially diluted to 10^−5 in sterile peptone water and 100 μl were plated in duplicate on the appropriate plate and then incubated at 37° C. for 24 hours except Campylobacter jejuni and Enterococcus hirae. The appropriate controls were included in each test e.g. an unopened agar plate and a set of serially diluted, untreated bacteria. After mesophilic aerobic incubation (or mesophilic microaerophilic incubation for C. jejuni), the number of colonies was enumerated and compared to the untreated controls to determine if a Log order reduction was obtained.

[3] = 74 strains, unheaded column beside Stdev (presumably mean)

| SMILES | MBC [1, 3] | MIC [1, 3] | MBC Range ([1]; range over 74 strains) | MIC Range ([1]; range over 74 strains) | E. coli bacterial colony counts (average of two replicates), Bacterial Dilution 10^−1 [2] | E. coli bacterial colony counts (average of two replicates), Bacterial Dilution 10^−2 [2] | E. coli bacterial colony counts (average of two replicates), Bacterial Dilution 10^−3 [2] | E. coli bacterial colony counts (average of two replicates), Bacterial Dilution 10^−4 [2] | E. coli bacterial colony counts (average of two replicates), Bacterial Dilution 10^−5 [2] | E. coli bacterial colony counts (average of two replicates), Bacterial Dilution Neat [2] | also measured |
| --- | --- | --- | --- | --- | --- | --- | --- | --- | --- | --- | --- |
| O=C(O)c1ccccc1 [Benzoic Acid] | – | – | – | – | – | – | – | – | – | – | MBC [1]: 920.79 µg/mL (≈ 7540 µM); MBC Range [1]: 165 to 1320 µg/mL; MIC [1]: 810.51 µg/mL (≈ 6640 µM); MIC Range [1]: 247.5 to 1320 µg/mL |
| O=C(O)/C=C/c1ccccc1 [Cininamic Acid] | 119.40 µg/mL (≈ 806 µM) | 95.12 µg/mL (≈ 642 µM) | 23.44 to 421.88 µg/mL | 23.44 to 140.65 µg/mL | – | – | – | – | – | – | – |
| O=C(O)CC(O)C(=O)O (stereo not shown) [E3, MALIC ACID] | – | – | – | – | TNTC | TNTC | TNTC | TNTC | >61 | TNTC | – |
| O=C(O)CC(O)(CC(=O)O)C(=O)O [E4, CITRIC ACID] | – | – | – | – | TNTC | TNTC | >159 | TNTC | 10 | TNTC | – |
| O=C1O[C@H]([C@@H](O)CO)C(O)=C1O [E5, ASCORBIC ACID] | – | – | – | – | TNTC | TNTC | TNTC | TNTC | TNTC | TNTC | – |
| C=CCc1ccc(O)c(OC)c1 [Eugenol] | 0.99 ul/ml | 0.86 ul/ml | 0.25-2 ul/ml | 0.25-2 ul/ml | – | – | – | – | – | – | – |
| CC(C)=CCC/C(C)=C/CO [Geraniol] | 9.46 ul/ml | 8.29 ul/ml | 0.94-22.5 ul/ml | 0.94-15^ ul/ml | – | – | – | – | – | – | – |
| Cc1ccc(C(C)C)c(O)c1 [Thymol] | 121.38 µg/mL (≈ 808 µM) | 85.73 µg/mL (≈ 571 µM) | 4.92 to 315 µg/mL | 19.69-315^ ug/ml | – | – | – | – | – | – | – |
| O=C/C=C/c1ccccc1 [Trans-cinnaldeheyde] | 0.50 ul/ml | 0.43 ul/ml | 0.05-0.8 ul/ml | 0.2-0.8 ul/ml | – | – | – | – | – | – | – |
| CC1=CC[C@@H](C(C)(C)O)CC1 [a-Terpineol] | 2.84 ul/ml | 2.43 ul/ml | 0.42-7.59 ul/ml | 0.53-7.59 ul/ml | – | – | – | – | – | – | – |
